What all share (assay type): binding
In test [1] the target is T1, RXRA:PPARG LBD heterodimer (Homo sapiens, UniProt P37231).
T1 sequence (P37231 231-505): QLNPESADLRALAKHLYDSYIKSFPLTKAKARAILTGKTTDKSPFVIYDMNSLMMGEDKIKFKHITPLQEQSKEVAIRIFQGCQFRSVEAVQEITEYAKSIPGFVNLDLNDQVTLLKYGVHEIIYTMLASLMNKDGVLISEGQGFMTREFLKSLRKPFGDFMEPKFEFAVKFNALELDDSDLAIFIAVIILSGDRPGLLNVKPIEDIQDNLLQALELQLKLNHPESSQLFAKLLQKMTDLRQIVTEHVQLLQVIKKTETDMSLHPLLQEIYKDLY
T1 sequence (P19793 228-462 partner): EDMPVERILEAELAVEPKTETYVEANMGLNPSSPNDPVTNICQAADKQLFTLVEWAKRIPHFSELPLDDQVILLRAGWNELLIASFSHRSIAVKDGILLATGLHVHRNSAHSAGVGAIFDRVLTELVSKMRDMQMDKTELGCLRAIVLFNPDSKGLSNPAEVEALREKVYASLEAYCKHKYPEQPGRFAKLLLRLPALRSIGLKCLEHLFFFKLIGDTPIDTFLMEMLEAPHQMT
Briefly: TR-FRET MED1 LxxLL peptide blockade.

Test [2] has as its target T1, RXRA:PPARG LBD heterodimer. Briefly: TR-FRET NCOR1 ID2 peptide recruitment.
Test [3] concerns the target T2, PPARA/RXRA LBD heterodimer (Homo sapiens, UniProt Q07869).
T2 sequence (Q07869 196-468 limits assumed): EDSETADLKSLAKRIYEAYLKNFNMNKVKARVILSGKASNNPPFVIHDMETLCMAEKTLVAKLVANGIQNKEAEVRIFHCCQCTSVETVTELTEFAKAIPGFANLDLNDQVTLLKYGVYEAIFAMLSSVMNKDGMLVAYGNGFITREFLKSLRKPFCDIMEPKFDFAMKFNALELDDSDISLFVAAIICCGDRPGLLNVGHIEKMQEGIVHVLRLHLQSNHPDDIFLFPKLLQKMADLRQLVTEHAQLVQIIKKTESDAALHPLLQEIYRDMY
T2 sequence (P19793 228-462 partner): T1 sequence (P19793 228-462 partner)
In words: TR-FRET NCOR1 ID2 peptide recruitment.

Test [4] deals with T3, PPARD/RXRA LBD heterodimer (Homo sapiens, UniProt Q03181).
T3 sequence (Q03181 171-441 limits assumed): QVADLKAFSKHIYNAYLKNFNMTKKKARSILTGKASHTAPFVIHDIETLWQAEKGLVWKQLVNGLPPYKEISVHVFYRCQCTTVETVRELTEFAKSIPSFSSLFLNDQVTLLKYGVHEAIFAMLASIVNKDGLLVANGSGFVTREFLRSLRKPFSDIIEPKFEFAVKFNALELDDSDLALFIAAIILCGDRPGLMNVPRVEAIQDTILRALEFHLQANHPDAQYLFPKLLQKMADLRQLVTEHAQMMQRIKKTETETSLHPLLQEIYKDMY
T3 sequence (P19793 228-462 partner): T1 sequence (P19793 228-462 partner)
In words: TR-FRET NCOR1 ID2 peptide recruitment.

For five molecules, IC50 and EC50 results are on record in article doi:10.1101/2025.05.08.652848v1 (biorxiv, 2025).

Bounds are passed on as bounds.

In the case of `O=C(Nc1ccccc1)c1cc([N+](=O)[O-])ccc1Cl` [GW9662], in test [1], the concentration for half-maximal inhibition (IC50) came to 97 ± 38 nM.

`N#Cc1ccc(Br)c(-c2cc(=O)c3c(F)cc(F)cc3[nH]2)c1` [FTX-6713, 4-bromo-3-(5,7-difluoro-4-oxo-1,4-dihydroquinolin-2-yl)benzonitrile] gave a concentration giving a half-maximal response (EC50) in test [2] of 70 ± 8 nM.

Molecule `N#Cc1ccc(Cl)c(-c2cc(=O)c3c(F)cc(F)cc3[nH]2)c1` [FTX-6746, 4-Chloro-3-(5,7-difluoro-4-oxo-1,4-dihydroquinolin-2-yl)benzonitrile] gave an EC50 in test [2] of 690 ± 70 nM. For the same molecule, inhibition in test [1] was half-maximal at 740 ± 160 nM (IC50).

With `CS(=O)(=O)c1ccc(C#N)cc1-c1cc(=O)c2c(F)cc(F)cc2[nH]1` [FX-909, 3-(5,7-difluoro-4-oxo-1,4-dihydroquinolin-2-yl)-4-(methylsulfonyl)benzonitrile], the results for the EC50 in test [2], in test [3] and in test [4] were 200 ± 30 nM, over 100 µM and over 100 µM, respectively.

Molecule `N#Cc1ccc(F)c(-c2cc(=O)c3c(F)cc(F)cc3[nH]2)c1` [FTX-6822, 3-(5,7-difluoro-4-oxo-1,4-dihydro-2-quinolyl)-4-fluorobenzonitrile] had a concentration for a half-maximal effect (EC50) in test [2] of 5000 nM.
